Assay results as given in ChEMBL document CHEMBL4507262, “Data for DCP probe A-1596586” (2021).
pKi: −log10 of the molar value.

Columns and labels:
[1] = target: Cyclin-dependent kinase 14 (Homo sapiens) (UniProt O94921); conditions: Compound concentration 1000.0 nM
[2] = target: Cyclin-dependent kinase 2 homolog (Plasmodium falciparum (isolate 3D7)) (UniProt P61075); conditions: Compound concentration 1000.0 nM
[3] = target: Cyclin-dependent kinase-like 5 (Homo sapiens) (UniProt O76039); conditions: Compound concentration 1000.0 nM
[4] = target: Serine/threonine-protein kinase PLK3 (Homo sapiens) (UniProt Q9H4B4); conditions: Compound concentration 1000.0 nM
[5] = target: Tyrosine-protein kinase receptor TYRO3 (Homo sapiens) (UniProt Q06418); conditions: Compound concentration 1000.0 nM
[6] = test system: Epidermal growth factor receptor (Homo sapiens), P00533 [L861Q]; conditions: Compound concentration 1000.0 nM
[7] = target: Receptor-type tyrosine-protein kinase FLT3 (Homo sapiens) (UniProt P36888); conditions: Compound concentration 1000.0 nM
[8] = target: Calcium/calmodulin-dependent protein kinase type 1 (Homo sapiens) (UniProt Q14012); conditions: Compound concentration 1000.0 nM
[9] = target: Serine/threonine-protein kinase PRP4 homolog (Homo sapiens) (UniProt Q13523); conditions: Compound concentration 1000.0 nM
[10] = target: Angiotensin-converting enzyme (Homo sapiens) (UniProt P12821); assay: ACE (h) Eurofins-Cerep enzyme and uptake assay; conditions: Compound concentration 10.0 uM
[11] = target: Phosphorylase b kinase gamma catalytic chain, skeletal muscle/heart isoform (Homo sapiens) (UniProt Q16816); conditions: Compound concentration 1000.0 nM
[12] = target: Substance-K receptor (Homo sapiens) (UniProt P21452); assay: NK2 (h) Eurofins-Cerep binding assay; set-up: ligand concentration 0.1 nM; conditions: filed as agonist, Compound concentration 10.0 uM
[13] = target: Calcium/calmodulin-dependent protein kinase type II subunit beta (Homo sapiens) (UniProt Q13554); conditions: Compound concentration 1000.0 nM
[14] = test system: Tyrosine-protein kinase ABL1 (Homo sapiens), P00519 [H396P]; conditions: Compound concentration 1000.0 nM
[15] = test system: Proto-oncogene tyrosine-protein kinase receptor Ret (Homo sapiens), P07949 [V804L]; conditions: Compound concentration 1000.0 nM
[16] = target: Casein kinase I isoform alpha (Homo sapiens) (UniProt P48729); conditions: Compound concentration 1000.0 nM
[17] = target: Serine/threonine-protein kinase PAK 1 (Homo sapiens) (UniProt Q13153); conditions: Compound concentration 1000.0 nM
[18] = target: MAP kinase-interacting serine/threonine-protein kinase 1 (Homo sapiens) (UniProt Q9BUB5); conditions: Compound concentration 1000.0 nM
[19] = target: Tyrosine-protein kinase CSK (Homo sapiens) (UniProt P41240); conditions: Compound concentration 1000.0 nM
[20] = target: Calcium/calmodulin-dependent protein kinase type II subunit delta (Homo sapiens) (UniProt Q13557); conditions: Compound concentration 1000.0 nM
[21] = target: Cytoplasmic tyrosine-protein kinase BMX (Homo sapiens) (UniProt P51813); conditions: Compound concentration 1000.0 nM
[22] = target: Mitogen-activated protein kinase kinase kinase 1 (Homo sapiens) (UniProt Q13233); conditions: Compound concentration 1000.0 nM
[23] = test system: Epidermal growth factor receptor (Homo sapiens), P00533 [UNDEFINED MUTATION]; conditions: Compound concentration 1000.0 nM
[24] = target: Fibroblast growth factor receptor 2 (Homo sapiens) (UniProt P21802); conditions: Compound concentration 1000.0 nM
[25] = target: Melatonin receptor type 1B (Homo sapiens) (UniProt P49286); assay: MT2 (ML1B) (h) Eurofins-Cerep binding assay; set-up: ligand concentration 0.05 nM; conditions: filed as agonist, Compound concentration 10.0 uM
[26] = target: Mitogen-activated protein kinase 14 (Homo sapiens) (UniProt Q16539); conditions: Compound concentration 1000.0 nM
[27] = target: Rhodopsin kinase GRK7 (Homo sapiens) (UniProt Q8WTQ7); conditions: Compound concentration 1000.0 nM
[28] = target: Wee1-like protein kinase (Homo sapiens) (UniProt P30291); conditions: Compound concentration 1000.0 nM
[29] = target: Mitogen-activated protein kinase kinase kinase 7 (Homo sapiens) (UniProt O43318); conditions: Compound concentration 1000.0 nM
[30] = test system: Phosphatidylinositol 4,5-bisphosphate 3-kinase catalytic subunit alpha isoform (Homo sapiens), P42336 [C420R]; conditions: Compound concentration 1000.0 nM
[31] = target: Dual specificity mitogen-activated protein kinase kinase 1 (Homo sapiens) (UniProt Q02750); conditions: Compound concentration 1000.0 nM
[32] = target: Inhibitor of nuclear factor kappa-B kinase subunit alpha (Homo sapiens) (UniProt O15111); conditions: Compound concentration 1000.0 nM
[33] = target: Myotonin-protein kinase (Homo sapiens) (UniProt Q09013); conditions: Compound concentration 1000.0 nM
[34] = target: Sigma non-opioid intracellular receptor 1 (Homo sapiens, UniProt Q99720); assay: GPCRScan assay: inhibition of Sigma 1; set-up: radioligand conc. used [nm] 4.0 – 5.0, parental cells HEKT
[35] = target: Mast/stem cell growth factor receptor Kit (Homo sapiens) (UniProt P10721); conditions: Compound concentration 1000.0 nM
[36] = target: Serine/threonine-protein kinase 32A (Homo sapiens) (UniProt Q8WU08); conditions: Compound concentration 1000.0 nM
[37] = target: Ribosomal protein S6 kinase beta-1 (Homo sapiens) (UniProt P23443); conditions: Compound concentration 1000.0 nM
[38] = target: Sigma intracellular receptor 2 (Homo sapiens, UniProt Q5BJF2); conditions: Compound concentration 10.0 uM
[39] = test system: Epidermal growth factor receptor (Homo sapiens), P00533 [G719C]; conditions: Compound concentration 1000.0 nM
[40] = target: Fibroblast growth factor receptor 4 (Homo sapiens) (UniProt P22455); conditions: Compound concentration 1000.0 nM
[41] = target: Serine/threonine-protein kinase 32C (Homo sapiens) (UniProt Q86UX6); conditions: Compound concentration 1000.0 nM
[42] = target: Serine/threonine-protein kinase tousled-like 1 (Homo sapiens) (UniProt Q9UKI8); conditions: Compound concentration 1000.0 nM
[43] = target: TRAF2 and NCK-interacting protein kinase (Homo sapiens) (UniProt Q9UKE5); conditions: Compound concentration 1000.0 nM
[44] = target: Dual specificity protein kinase CLK2 (Homo sapiens) (UniProt P49760); conditions: Compound concentration 1000.0 nM
[45] = target: Protein kinase C iota type (Homo sapiens) (UniProt P41743); conditions: Compound concentration 1000.0 nM

Myotonin-protein kinase (Homo sapiens), sequence (Q09013 whole entry): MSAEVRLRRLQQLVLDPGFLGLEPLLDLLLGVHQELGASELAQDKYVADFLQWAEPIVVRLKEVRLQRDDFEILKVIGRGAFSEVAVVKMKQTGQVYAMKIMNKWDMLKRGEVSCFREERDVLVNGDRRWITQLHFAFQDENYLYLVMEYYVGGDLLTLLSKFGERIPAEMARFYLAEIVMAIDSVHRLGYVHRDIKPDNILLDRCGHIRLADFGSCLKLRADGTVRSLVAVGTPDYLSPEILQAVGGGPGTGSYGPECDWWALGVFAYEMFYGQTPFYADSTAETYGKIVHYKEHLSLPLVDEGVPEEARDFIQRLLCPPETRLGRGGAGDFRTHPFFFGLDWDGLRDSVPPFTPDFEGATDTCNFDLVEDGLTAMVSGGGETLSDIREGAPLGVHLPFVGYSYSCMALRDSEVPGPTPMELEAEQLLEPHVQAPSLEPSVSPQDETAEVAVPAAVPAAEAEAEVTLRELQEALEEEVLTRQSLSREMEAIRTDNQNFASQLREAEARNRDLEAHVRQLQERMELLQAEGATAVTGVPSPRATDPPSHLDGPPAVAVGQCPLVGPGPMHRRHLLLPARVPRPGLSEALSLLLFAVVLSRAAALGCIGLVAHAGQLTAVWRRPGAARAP
Serine/threonine-protein kinase 32A (Homo sapiens), sequence (Q8WU08 whole entry): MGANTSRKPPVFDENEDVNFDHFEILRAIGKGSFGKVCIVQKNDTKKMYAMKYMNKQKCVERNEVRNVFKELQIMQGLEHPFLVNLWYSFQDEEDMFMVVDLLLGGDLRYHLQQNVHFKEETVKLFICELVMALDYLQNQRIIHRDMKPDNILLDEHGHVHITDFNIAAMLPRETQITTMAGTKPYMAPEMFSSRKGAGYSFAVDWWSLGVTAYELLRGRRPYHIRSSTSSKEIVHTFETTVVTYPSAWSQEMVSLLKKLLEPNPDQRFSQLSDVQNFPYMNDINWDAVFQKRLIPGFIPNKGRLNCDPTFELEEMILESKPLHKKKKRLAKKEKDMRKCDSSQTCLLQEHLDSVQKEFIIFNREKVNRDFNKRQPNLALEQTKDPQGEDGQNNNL
Cyclin-dependent kinase 14 (Homo sapiens), sequence (O94921 whole entry): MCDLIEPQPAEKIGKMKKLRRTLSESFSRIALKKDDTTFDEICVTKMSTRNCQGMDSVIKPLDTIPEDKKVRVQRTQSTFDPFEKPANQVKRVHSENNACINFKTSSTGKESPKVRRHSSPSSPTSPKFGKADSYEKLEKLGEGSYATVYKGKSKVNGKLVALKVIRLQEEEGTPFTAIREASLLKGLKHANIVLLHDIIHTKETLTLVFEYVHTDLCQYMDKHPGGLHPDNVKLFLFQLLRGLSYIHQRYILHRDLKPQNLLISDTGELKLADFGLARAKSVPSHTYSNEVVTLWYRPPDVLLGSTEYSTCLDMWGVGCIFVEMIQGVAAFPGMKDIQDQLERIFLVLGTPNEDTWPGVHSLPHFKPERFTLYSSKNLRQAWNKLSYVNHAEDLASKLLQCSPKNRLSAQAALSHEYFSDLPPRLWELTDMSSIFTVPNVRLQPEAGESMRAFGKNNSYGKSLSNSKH
Ribosomal protein S6 kinase beta-1 (Homo sapiens), sequence (P23443 whole entry, looked up): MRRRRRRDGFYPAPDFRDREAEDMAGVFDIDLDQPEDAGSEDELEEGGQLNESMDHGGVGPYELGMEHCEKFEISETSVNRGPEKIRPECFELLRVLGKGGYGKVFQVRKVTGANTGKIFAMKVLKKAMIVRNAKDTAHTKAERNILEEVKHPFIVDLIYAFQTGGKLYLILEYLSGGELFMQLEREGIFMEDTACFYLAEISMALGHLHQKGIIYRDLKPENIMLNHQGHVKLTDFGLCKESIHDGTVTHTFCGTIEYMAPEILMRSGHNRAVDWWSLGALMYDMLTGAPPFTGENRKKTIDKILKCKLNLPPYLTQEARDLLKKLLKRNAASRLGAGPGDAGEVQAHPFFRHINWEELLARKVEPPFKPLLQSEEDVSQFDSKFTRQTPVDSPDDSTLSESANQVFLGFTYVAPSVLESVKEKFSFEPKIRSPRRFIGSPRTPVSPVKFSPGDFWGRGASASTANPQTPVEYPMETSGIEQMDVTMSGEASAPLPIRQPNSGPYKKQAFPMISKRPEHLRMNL
Melatonin receptor type 1B (Homo sapiens), sequence (P49286 whole entry): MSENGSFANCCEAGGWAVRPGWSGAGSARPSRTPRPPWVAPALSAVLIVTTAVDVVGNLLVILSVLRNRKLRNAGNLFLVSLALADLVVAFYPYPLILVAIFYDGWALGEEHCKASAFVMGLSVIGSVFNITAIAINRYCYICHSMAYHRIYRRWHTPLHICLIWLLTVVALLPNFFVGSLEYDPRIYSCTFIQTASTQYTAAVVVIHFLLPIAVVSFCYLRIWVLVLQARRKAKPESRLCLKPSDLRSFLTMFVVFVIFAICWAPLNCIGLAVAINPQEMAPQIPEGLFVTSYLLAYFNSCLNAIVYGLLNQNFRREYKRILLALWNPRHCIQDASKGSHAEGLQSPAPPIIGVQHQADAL
Tyrosine-protein kinase receptor TYRO3 (Homo sapiens), sequence (Q06418 whole entry): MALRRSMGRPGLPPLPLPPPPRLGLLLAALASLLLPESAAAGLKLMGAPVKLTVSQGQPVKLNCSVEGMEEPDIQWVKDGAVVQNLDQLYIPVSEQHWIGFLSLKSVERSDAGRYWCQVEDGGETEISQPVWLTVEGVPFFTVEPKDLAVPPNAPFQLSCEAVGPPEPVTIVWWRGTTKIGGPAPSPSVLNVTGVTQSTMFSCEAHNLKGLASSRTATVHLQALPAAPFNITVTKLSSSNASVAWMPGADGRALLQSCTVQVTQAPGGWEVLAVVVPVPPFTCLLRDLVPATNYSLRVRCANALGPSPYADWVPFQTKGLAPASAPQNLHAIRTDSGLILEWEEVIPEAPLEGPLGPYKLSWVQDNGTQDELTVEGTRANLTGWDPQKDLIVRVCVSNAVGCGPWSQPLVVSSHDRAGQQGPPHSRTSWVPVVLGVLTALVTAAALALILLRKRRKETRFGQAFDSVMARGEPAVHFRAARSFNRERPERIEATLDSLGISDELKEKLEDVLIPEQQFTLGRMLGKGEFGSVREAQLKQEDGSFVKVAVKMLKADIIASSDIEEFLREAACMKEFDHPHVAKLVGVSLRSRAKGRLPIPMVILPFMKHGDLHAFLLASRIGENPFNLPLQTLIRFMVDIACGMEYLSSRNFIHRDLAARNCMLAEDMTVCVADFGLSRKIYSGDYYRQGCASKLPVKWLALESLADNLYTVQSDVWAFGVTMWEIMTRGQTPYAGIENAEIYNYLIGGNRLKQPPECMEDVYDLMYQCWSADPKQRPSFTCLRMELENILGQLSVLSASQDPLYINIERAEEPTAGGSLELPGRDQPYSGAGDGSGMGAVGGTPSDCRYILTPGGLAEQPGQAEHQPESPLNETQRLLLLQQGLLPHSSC
Rhodopsin kinase GRK7 (Homo sapiens), sequence (Q8WTQ7 whole entry): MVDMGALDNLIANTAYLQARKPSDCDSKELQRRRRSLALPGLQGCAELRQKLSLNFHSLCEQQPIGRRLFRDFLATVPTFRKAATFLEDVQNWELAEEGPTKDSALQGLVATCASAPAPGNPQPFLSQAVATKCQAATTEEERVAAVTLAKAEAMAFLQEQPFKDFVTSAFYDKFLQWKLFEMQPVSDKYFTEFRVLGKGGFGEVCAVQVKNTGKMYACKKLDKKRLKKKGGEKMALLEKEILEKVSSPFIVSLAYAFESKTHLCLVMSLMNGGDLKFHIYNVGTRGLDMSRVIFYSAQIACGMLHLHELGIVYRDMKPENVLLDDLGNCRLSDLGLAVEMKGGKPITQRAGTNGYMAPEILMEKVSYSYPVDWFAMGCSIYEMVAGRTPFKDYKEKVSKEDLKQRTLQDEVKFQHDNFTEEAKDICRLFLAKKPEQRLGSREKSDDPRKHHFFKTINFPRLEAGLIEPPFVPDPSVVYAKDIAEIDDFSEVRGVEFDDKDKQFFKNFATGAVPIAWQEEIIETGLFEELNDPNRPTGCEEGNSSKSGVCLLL
Serine/threonine-protein kinase PRP4 homolog (Homo sapiens), sequence (Q13523 whole entry): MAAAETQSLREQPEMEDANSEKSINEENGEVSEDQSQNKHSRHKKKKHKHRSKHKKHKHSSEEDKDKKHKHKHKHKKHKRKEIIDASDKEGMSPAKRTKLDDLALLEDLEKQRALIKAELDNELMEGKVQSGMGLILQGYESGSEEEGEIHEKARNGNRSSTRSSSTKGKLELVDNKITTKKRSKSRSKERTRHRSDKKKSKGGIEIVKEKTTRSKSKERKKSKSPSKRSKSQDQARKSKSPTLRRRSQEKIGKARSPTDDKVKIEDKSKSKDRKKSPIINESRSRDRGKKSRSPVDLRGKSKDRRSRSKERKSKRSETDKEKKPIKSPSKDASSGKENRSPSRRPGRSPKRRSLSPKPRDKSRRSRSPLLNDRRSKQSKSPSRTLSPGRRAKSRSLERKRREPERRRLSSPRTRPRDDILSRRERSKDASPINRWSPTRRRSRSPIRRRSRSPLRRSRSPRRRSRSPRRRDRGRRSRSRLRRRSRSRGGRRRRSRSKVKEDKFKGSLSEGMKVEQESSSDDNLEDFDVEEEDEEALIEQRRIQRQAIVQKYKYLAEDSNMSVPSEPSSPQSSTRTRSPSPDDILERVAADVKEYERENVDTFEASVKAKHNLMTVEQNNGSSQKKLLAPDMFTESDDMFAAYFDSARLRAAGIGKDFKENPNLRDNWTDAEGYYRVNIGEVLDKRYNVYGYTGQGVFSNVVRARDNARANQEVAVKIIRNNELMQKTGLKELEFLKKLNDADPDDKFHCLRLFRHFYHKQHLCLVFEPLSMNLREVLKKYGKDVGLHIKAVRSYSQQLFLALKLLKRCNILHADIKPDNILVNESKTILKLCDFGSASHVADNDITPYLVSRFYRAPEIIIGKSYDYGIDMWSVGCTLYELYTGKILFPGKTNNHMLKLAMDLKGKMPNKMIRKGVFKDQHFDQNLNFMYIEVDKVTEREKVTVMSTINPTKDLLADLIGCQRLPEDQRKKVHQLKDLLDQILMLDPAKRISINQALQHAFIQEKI
Sigma intracellular receptor 2, sequence (Q5BJF2 whole entry): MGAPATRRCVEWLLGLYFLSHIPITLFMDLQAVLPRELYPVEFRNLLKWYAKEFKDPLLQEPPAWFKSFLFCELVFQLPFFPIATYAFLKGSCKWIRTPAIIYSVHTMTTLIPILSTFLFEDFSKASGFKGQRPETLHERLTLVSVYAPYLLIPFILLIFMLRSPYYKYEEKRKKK

**Q.** What does the source list for COc1ccc2c(c1)O[C@H](c1ccc(OC)c(OC)c1)C[C@@H]2NC(=O)C1(c2ccc3c(c2)OC(F)(F)O3)CC1 [A-1596584]?
**A.** residual activity [1]: 98%; residual activity [2]: 92%; residual activity [3]: 100%; residual activity [4]: 100%; residual activity [5]: 97%; residual activity [6]: 100%; residual activity [7]: 100%; residual activity [8]: 100%; residual activity [9]: 56%; % Inhibition of Control Values (Mean n=2) [10]: -28.5%; residual activity [11]: 100%; % Inhibition of Control Specific Binding (Mean n=2) [12]: 11.5%; residual activity [13]: 88%; residual activity [14]: 100%; residual activity [15]: 87%; residual activity [16]: 82%; residual activity [17]: 100%; residual activity [18]: 81%; residual activity [19]: 100%; residual activity [20]: 100%; residual activity [21]: 100%; residual activity [22]: 100%; residual activity [23]: 100%; residual activity [24]: 92%; % Inhibition of Control Specific Binding (Mean n=2) [25]: 38%; residual activity [26]: 90%; residual activity [27]: 100%; residual activity [28]: 100%; residual activity [29]: 100%; residual activity [30]: 91%; residual activity [31]: 100%; residual activity [32]: 89%; residual activity [33]: 94%; pKi [34]: 5.56; residual activity [35]: 99%; residual activity [36]: 100%; residual activity [37]: 91%; inhibition [38]: 85.3%; residual activity [39]: 100%; residual activity [40]: 100%; residual activity [41]: 84%; residual activity [42]: 100%; residual activity [43]: 100%; residual activity [44]: 95%; residual activity [45]: 89%

**Q.** With COc1ccc2c(c1)O[C@@H](c1ccc(OC)c(OC)c1)C[C@H]2NC(=O)C1(c2ccc3c(c2)OC(F)(F)O3)CC1 [A-1596586] as the compound, how does the residual activity [1] read?
**A.** Its residual activity is 93%.

**Q.** What about the residual activity [2] of the same compound?
**A.** The residual activity was 84%.

**Q.** What about the residual activity [3] of the same compound?
**A.** Its residual activity is 85%.

**Q.** What about the residual activity [4] of the same compound?
**A.** The residual activity was 92%.

**Q.** And the residual activity [5]?
**A.** The residual activity was 97%.

**Q.** And the residual activity [6]?
**A.** Its residual activity is 100%.

**Q.** And the residual activity [7]?
**A.** Its residual activity is 100%.

**Q.** And the residual activity [8]?
**A.** The residual activity was 100%.

**Q.** What about the residual activity [9] of the same compound?
**A.** The residual activity was 83%.

**Q.** And the % Inhibition of Control Values (Mean n=2) [10]?
**A.** The % Inhibition of Control Values (Mean n=2) was -94%.

**Q.** What about the residual activity [11] of the same compound?
**A.** The residual activity was 100%.

**Q.** What about the % Inhibition of Control Specific Binding (Mean n=2) [12] of the same compound?
**A.** Its % Inhibition of Control Specific Binding (Mean n=2) is 11.5%.

**Q.** What about the residual activity [13] of the same compound?
**A.** The residual activity was 69%.

**Q.** What about the residual activity [14] of the same compound?
**A.** Its residual activity is 85%.

**Q.** And the residual activity [15]?
**A.** Its residual activity is 95%.

**Q.** What about the residual activity [16] of the same compound?
**A.** Its residual activity is 78%.

**Q.** What about the residual activity [17] of the same compound?
**A.** The residual activity was 89%.

**Q.** And the residual activity [18]?
**A.** The residual activity was 78%.

**Q.** What about the residual activity [19] of the same compound?
**A.** The residual activity was 87%.

**Q.** What about the residual activity [20] of the same compound?
**A.** The residual activity was 91%.

**Q.** What about the residual activity [21] of the same compound?
**A.** Its residual activity is 91%.

**Q.** And the residual activity [22]?
**A.** The residual activity was 77%.

**Q.** And the residual activity [23]?
**A.** Its residual activity is 100%.

**Q.** And the residual activity [24]?
**A.** The residual activity was 93%.

**Q.** And the % Inhibition of Control Specific Binding (Mean n=2) [25]?
**A.** The % Inhibition of Control Specific Binding (Mean n=2) was 41%.

**Q.** What about the residual activity [26] of the same compound?
**A.** Its residual activity is 99%.

**Q.** And the residual activity [27]?
**A.** Its residual activity is 100%.

**Q.** What about the residual activity [28] of the same compound?
**A.** The residual activity was 99%.

**Q.** What about the residual activity [29] of the same compound?
**A.** The residual activity was 100%.

**Q.** What about the residual activity [30] of the same compound?
**A.** The residual activity was 86%.

**Q.** What about the residual activity [31] of the same compound?
**A.** The residual activity was 86%.

**Q.** What about the residual activity [32] of the same compound?
**A.** The residual activity was 95%.

**Q.** What about the residual activity [33] of the same compound?
**A.** The residual activity was 93%.

**Q.** And the pKi [34]?
**A.** The pKi was 6.50.

**Q.** And the residual activity [35]?
**A.** The residual activity was 88%.

**Q.** And the residual activity [36]?
**A.** The residual activity was 100%.

**Q.** What about the residual activity [37] of the same compound?
**A.** The residual activity was 81%.

**Q.** What about the inhibition [38] of the same compound?
**A.** The inhibition was 85.8%.

**Q.** What about the residual activity [39] of the same compound?
**A.** The residual activity was 96%.

**Q.** What about the residual activity [40] of the same compound?
**A.** Its residual activity is 90%.

**Q.** And the residual activity [41]?
**A.** Its residual activity is 100%.

**Q.** And the residual activity [42]?
**A.** The residual activity was 84%.

**Q.** What about the residual activity [43] of the same compound?
**A.** The residual activity was 71%.

**Q.** What about the residual activity [44] of the same compound?
**A.** Its residual activity is 96%.

**Q.** And the residual activity [45]?
**A.** Its residual activity is 92%.
